PMC4138410 (Bioorganic & medicinal chemistry, 2014)
Like-named read-outs stand apart in the source and are kept apart here.

Key:
BoNT/A LC [1] = molecular target: T1, BoNT/A LC (Clostridium botulinum, UniProt P0DPI0); type: biochemical
BoNT/A LC [2] = molecular target: T1, BoNT/A LC; test: biochemical; type: biochemical
[3] = pH 7.4; for %GSH remaining at 30 min: 0.5 h
BoNT/A LC [4] = molecular target: T1, BoNT/A LC; type: biochemical; remark: listed apart in the source
BoNT/A LC [5] = molecular target: T1, BoNT/A LC; test: biochemical; type: biochemical; remark: listed apart in the source
BoNT/A = conditions: cited from earlier work

T1 sequence (P0DPI0 2-425 limits assumed): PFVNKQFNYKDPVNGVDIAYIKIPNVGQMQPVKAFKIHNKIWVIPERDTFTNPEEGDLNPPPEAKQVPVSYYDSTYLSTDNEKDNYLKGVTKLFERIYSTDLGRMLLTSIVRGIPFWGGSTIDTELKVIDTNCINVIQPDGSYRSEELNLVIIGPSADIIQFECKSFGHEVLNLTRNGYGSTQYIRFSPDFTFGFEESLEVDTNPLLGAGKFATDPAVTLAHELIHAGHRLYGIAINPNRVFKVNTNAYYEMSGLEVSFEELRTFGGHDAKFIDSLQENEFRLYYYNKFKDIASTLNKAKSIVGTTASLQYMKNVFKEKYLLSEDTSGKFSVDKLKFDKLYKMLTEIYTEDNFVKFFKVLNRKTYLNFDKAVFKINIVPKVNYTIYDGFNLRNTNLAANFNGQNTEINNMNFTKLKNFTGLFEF

For `COc1ccc(OC)c(Nc2cccc(C(=O)NCc3ccc(Oc4ccccc4)cc3)n2)c1` [Compound 34, 6-[(2,5-Dimethoxyphenyl)amino]-N-(4-phenoxybenzyl)picolinamide], the “inhibition of BoNT/A in 66-mer assay (in words)” value (“inhibition” for short) (BoNT/A LC [1]) was “decrease in activity”.
With `O=C(NCc1ccc(Oc2ccccc2)cc1)c1ccccn1` [Compound 35, N-(4-phenoxybenzyl)picolinamide] the “inhibition” value (BoNT/A LC [1]) was “high IC50 values”.
In the case of `COc1ccc(OC)c(CNCC(=O)Nc2cccc(OCc3ccccc3)c2)c1` [Compound 33, N-[3-(Benzyloxy)phenyl]-2-[(2,5-dimethoxybenzyl)amino]acetamide], the “inhibition” value (BoNT/A LC [1]) is reported as “well tolerated”.
In the case of `O=C1C=CC(=O)C=C1` [Compound 3, BQ], the “irreversible/time-dependent inactivation in 66-mer assay (in words)” value (BoNT/A LC [2]) is reported as “comparable to the SNAPtide assay”.
In the case of `COC1=CC(=O)C(OC)=C(c2ccc(C)cc2)C1=O` [Compound 21, 2,5-diOMe-3-Tol-BQ], the “%GSH remaining at 30 min” value [3] is reported as 49 (35) % and the “%GSH remaining at 1 hour” value [3] is reported as 49 (35) %.
In the case of `O=C(NCc1ccc(-c2ccccc2)cc1)c1nc[nH]n1` [Compound 39, N-([1,1′-Biphenyl]-4-ylmethyl)-1H-1,2,4-triazole-3-carboxamide], the “inhibition” value (BoNT/A LC [1]) is reported as “high IC50 values”.
In the case of `COc1ccc(OC)c(Cn2cnc(C(=O)NCc3ccc(-c4ccccc4)cc3)n2)c1` [Compound 38, N-([1,1′-Biphenyl]-4-ylmethyl)-1-(2,5-dimethoxybenzyl)-1H-1,2,4-triazole-3-carboxamide], the “inhibition” value (BoNT/A LC [1]) is reported as “decrease in activity”.
In the case of `O=C1C=CC(=O)c2c(O)ccc(O)c21` [Compound 13, 5,8-diOH-NQ], the “%GSH remaining at 30 min” value [3] is reported as 39 (26) % and the “%GSH remaining at 1 hour” value [3] is reported as 39 (26) %.
With `O=C1C=CC(=O)C(Nc2cccc(C(=O)NCc3ccc(Oc4ccccc4)cc3)n2)=C1` [Compound 31, 6-[(3,6-Dioxocyclohexa-1,4-dien-1-yl)amino]-N-(4-phenoxybenzyl)picolinamide] the “fold increase in activity by adding the phenoxyphenyl fragment” value (BoNT/A LC [1]) was 7 fold and the “fold increase in potency by addition of BQ vs analogous amino acetamide” value (“fold increase … vs analogous amino acetamide” for short) (BoNT/A LC [1]) was 21 fold.
In the case of `O=C1C=CC(=O)C(Cn2cnc(C(=O)NCc3ccc(-c4ccccc4)cc3)n2)=C1` [Compound 32, N-([1,1′-Biphenyl]-4-ylmethyl)-1-[(3,6-dioxocyclohexa-1,4-dien-1-yl)methyl]-1H-1,2,4-triazole-3-carboxamide], the “fold increase … vs analogous amino acetamide” value (BoNT/A LC [1]) is reported as 64 fold.
For `O=C1C=CC(=O)C(CNCC(=O)Nc2cccc(OCc3ccccc3)c2)=C1` [Compound 30, N-[3-(Benzyloxy)phenyl]-2-{[(3,6-dioxocyclohexa-1,4-dien-1-yl)methyl]amino}acetamide], the “fold increase … vs analogous amino acetamide” value (BoNT/A LC [1]) was 26 fold.
For chicoric acid [CA], the “effect on BQ-mediated inactivation of BoNT/A (in words)” value (BoNT/A LC [4]) was “not affected”.
In the case of `CCN1C(=O)C=CC1=O` [N-ethylmaleimide, reference compound], the “inactivation of BoNT/A in SNAPtide screen (in words)” value (BoNT/A LC [5]) is reported as “weakly inactivated” and the “inhibitory rank in SNAPtide assay (in words)” value (BoNT/A LC [5]) is reported as “one of the weakest inhibitors tested”.
For `CS(=O)(=O)SCCCN` [MTSPA, (3-aminopropyl)methanethiosulfonate], the Ki (BoNT/A) is given as 7.7 µM.
With `CC1=CC(=O)C=C(C)C1=O` [Compound 25, 2,6-diMe-BQ] the “%GSH remaining at 30 min” value [3] was 0%.
With `O=C1C=CC(=O)C(CC(=O)O)=C1` [Compound 22, 2-(3,6-Dioxocyclohexa-1,4-dien-1-yl)acetic acid] the kinact/KI (BoNT/A LC [2]) was 2.5 M⁻¹ s⁻¹ and the “inhibition” value (BoNT/A LC [1]) was “fairly active”.
In the case of `C=CC(=O)Nc1cccnc1` [Compound 41], the “irreversible/time-dependent inactivation in 66-mer assay (in words)” value (BoNT/A LC [2]) is reported as “no irreversible inhibition” and the “inhibition” value (BoNT/A LC [1]) is reported as “weakly inhibited”.
With `O=C1C=C(Cl)C(=O)C=C1Cl` [Compound 1, 2,5-diCl-BQ] the “effect on catalytic activity (in words)” value (BoNT/A LC [5]) was “completely abrogated catalytic activity”, the “%GSH remaining at 10 s” value ([3]; 10 s) was 0% and the “%GSH remaining at 30 min” value [3] was 0%.
With `CC1=CC(=O)C=CC1=O` [Compound 12, 2-Me-BQ] the kinact/KI (BoNT/A LC [5]) was 3.5 M⁻¹ s⁻¹.
For `COC1=CC(=O)C=C(OC)C1=O` [Compound 24, 2,6-diOMe-BQ], the “%GSH remaining at 30 min” value [3] was 0%.
For `NCC(=O)Nc1ccc(Oc2ccccc2)cc1` [Compound 28, 2-Amino-N-(4-phenoxyphenyl)acetamide], the “effect on BQ-mediated inactivation of BoNT/A (in words)” value (BoNT/A LC [4]) was “competed”.
In the case of `COc1cccc2c1C(=O)C=CC2=O` [Compound 18, 5-OMe-NQ], the “%GSH remaining at 30 min” value [3] is reported as 27 (14) % and the “%GSH remaining at 1 hour” value [3] is reported as 27 (14) %.
For `O=C1C=CC(=O)c2cc(O)ccc21` [Compound 19, 6-OH-NQ], the “%GSH remaining at 30 min” value [3] was 32 (22) % and the “%GSH remaining at 1 hour” value [3] was 32 (22) %.
